In patent US10723695B2, “Microbiocidal phenylamidine derivatives” (SYNGENTA PARTICIPATIONS AG, priority 2015, dated 2020):

Key:
[1] = test system: Blumeria graminis f. sp. tritici (Erysiphe graminis f. sp. tritici); assay: Blumeria graminis f. sp. tritici / wheat / leaf disc preventative (powdery mildew on wheat); type: in vivo; conditions: foliar, wheat leaf segments cv. Kanzler, compared to untreated control leaf disks, read-out: disease control
From the text: Blumeria graminis f. sp. tritici (Erysiphe graminis f. sp. tritici)/Wheat/Leaf Disc Preventative (Powdery Mildew on Wheat) Wheat leaf segments cv. Kanzler were placed on agar in a multiwell plate (24-well format) and sprayed with the formulated test compound diluted in water. The leaf disks were inoculated by shaking powdery mildew infected plants above the test plates 1 day after application.

[2] = test system: Puccinia recondita f. sp. tritici; assay: Puccinia recondita f. sp. tritici / wheat / leaf disc curative (brown rust); type: in vivo; conditions: foliar, 24 h, wheat leaf segments cv. Kanzler, curative (applied 1 day after inoculation), compared to untreated control leaf disks, read-out: disease control
Description: Puccinia recondita f. sp. tritici/Wheat/Leaf Disc Curative (Brown Rust) Wheat leaf segments cv. Kanzler are placed on agar in multiwell plates (24-well format). The leaf segments are inoculated with a spore suspension of the fungus. Plates were stored in darkness at 19° C. and 75% rh. The formulated test compound diluted in water was applied 1 day after inoculation.

Phakopsora pachyrhizi = Phakopsora pachyrhizi / soybean / leaf disk preventative (soybean rust); type: in vivo; conditions: foliar, soybean leaf disks, compared to untreated control leaf disks, read-out: disease control
Summary of the method: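 Four-week-old soybean plants sprayed with formulated compound in water; leaf disks cut 1 day later, inoculated on the lower surface with spore suspension. Held 24-36 h dark at 20° C, 75% rh, then 20° C with 12 h light/day; % diseased disk area scored 12-14 days after application.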

[3] = test system: Puccinia recondita f. sp. tritici; assay: Puccinia recondita f. sp. tritici / wheat / leaf disc preventative (brown rust); type: in vivo; conditions: foliar, wheat leaf segments cv. Kanzler, compared to untreated control leaf disks, read-out: disease control
Summary of the method: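 Wheat leaf segments (cv. Kanzler) on agar were sprayed preventatively with formulated compound diluted in water and inoculated with spores 1 day later. They were incubated at 19 °C, 75% rh, 12 h light/12 h dark. Percent disease control versus untreated was scored 7-9 days after application.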

| SMILES | pest or weed control at 200 ppm [1] | pest or weed control at 200 ppm [2] | pest or weed control at 200 ppm (Phakopsora pachyrhizi) | pest or weed control at 200 ppm [3] | melting point |
| --- | --- | --- | --- | --- | --- |
| COc1cc(/N=C/N(C)C(C)C)c(C)cc1[C@](O)(c1ccccc1)C(F)(F)F [Compound E1.027] | ≥ 80% | ≥ 80% | ≥ 80% | ≥ 80% | 110.5 to 111.7 °C |
| CCN(C)/C=N/c1cc(OC)c(C(O)(c2cccc(F)c2)C(F)(F)F)cc1C (stereo not shown) [Compound E1.029] | ≥ 80% | ≥ 80% | ≥ 80% | ≥ 80% | 130 to 132 °C |
| CCN(C)/C=N/c1cc(OC)c(C(O)(c2cc(F)ccc2F)C(F)(F)F)cc1C (stereo not shown) [Compound E1.031] | ≥ 80% | ≥ 80% | ≥ 80% | ≥ 80% | 137 to 140 °C |
| CCN(C)/C=N/c1cc(OC)c(C(O)(c2ccccc2Cl)C(F)(F)F)cc1C (stereo not shown) [Compound E1.033] | ≥ 80% | ≥ 80% | ≥ 80% | ≥ 80% | 97 to 100 °C |
| CCN(C)/C=N/c1cc(OC)c(C(O)(c2ccccc2F)C(F)(F)F)cc1C (stereo not shown) [Compound E1.034] | ≥ 80% | ≥ 80% | ≥ 80% | ≥ 80% | 96 to 98 °C |
| CCN(C)/C=N/c1cc(OC)c(C(O)(c2ccccc2Br)C(F)(F)F)cc1C (stereo not shown) [Compound E1.035] | ≥ 80% | ≥ 80% | ≥ 80% | ≥ 80% | 114 to 116 °C |
| CCN(C)/C=N/c1cc(OC)c(C(O)(C2CC2)C(F)(F)F)cc1C (stereo not shown) [Compound E1.052] | ≥ 80% | ≥ 80% | ≥ 80% | ≥ 80% | 64 to 72 °C |
| CCC(O)(c1cc(C)c(/N=C/N(C)C(C)C)cc1OC)C(F)(F)F (stereo not shown) [Compound E1.063] | ≥ 80% | ≥ 80% | ≥ 80% | ≥ 80% | 73 to 76 °C |
| COc1cc(/N=C/N(C)C(C)C)c(C)cc1C(O)(C1CC1)C(F)(F)F (stereo not shown) [Compound E1.064] | ≥ 80% | ≥ 80% | ≥ 80% | ≥ 80% | 90 to 93 °C |
| COc1cc(/N=C/N(C)C(C)C)c(C)cc1C(O)(C(C)C)C(F)(F)F (stereo not shown) [Compound E1.067] | ≥ 80% | ≥ 80% | ≥ 80% | ≥ 80% | 78 to 79 °C |
| C=CCC(O)(c1cc(C)c(/N=C/N(C)CC)cc1OC)C(F)(F)F (stereo not shown) [Compound E1.071] | ≥ 80% | ≥ 80% | ≥ 80% | ≥ 80% | 123 to 127 °C |
| C=C(C)C(O)(c1cc(C)c(/N=C/N(C)C(C)C)cc1OC)C(F)(F)F (stereo not shown) [Compound E1.081] | ≥ 80% | ≥ 80% | ≥ 80% | ≥ 80% | 110 to 113 °C |
| C=C(C)CC(O)(c1cc(C)c(/N=C/N(C)C(C)C)cc1OC)C(F)(F)F (stereo not shown) [Compound E1.082] | ≥ 80% | ≥ 80% | ≥ 80% | ≥ 80% | 90 to 95 °C |
| C=CCC(O)(c1cc(C)c(/N=C/N(C)C(C)C)cc1OC)C(F)(F)F (stereo not shown) [Compound E1.084] | ≥ 80% | ≥ 80% | ≥ 80% | ≥ 80% | 45 to 50 °C |
| CCN(C)/C=N/c1cc(OC)c(C(O)(Cc2cc(C)ncn2)C(F)(F)F)cc1C (stereo not shown) [Compound E1.099] | ≥ 80% | ≥ 80% | ≥ 80% | ≥ 80% | 82 to 85 °C |
| CCN(C)/C=N/c1cc(OC)c(C(O)(Cc2cccc(OC)n2)C(F)(F)F)cc1C (stereo not shown) [Compound E1.100] | ≥ 80% | ≥ 80% | ≥ 80% | ≥ 80% | 92 to 95 °C |
| CCN(C)/C=N/c1cc(OC)c(C(O)(CC)c2ccccc2)cc1C (stereo not shown) [Compound E1.126] | ≥ 80% | ≥ 80% | ≥ 80% | ≥ 80% | 87 to 89 °C |
